The source made the active and inactive calls. The calls are words filed in the database; no cut-off is given here.
Key:
Nucleic Acid [1] = test: Binding affinity to HIF1alpha DNA by surface plasmon resonance assay; assay type: nucleic-acid assay
Nucleic Acid [2] = test: Binding affinity to HIF2alpha DNA by surface plasmon resonance assay; assay type: nucleic-acid assay
Nucleic Acid [3] = test: Binding affinity to 5'-GGGGCGGGCACGGGGCGGG-3' DNA by surface plasmon resonance; assay type: nucleic-acid assay
HOS = test: Antiproliferative activity against human HOS cells after 96 hrs by SRB assay; assay type: functional, cell-based
MG-63 = test: Antiproliferative activity against human MG63 cells after 96 hrs by SRB assay; assay type: functional, cell-based; details: MG-63, 96 h
HOS-TE85 = test: Antiproliferative activity against human MNNG-HOS cells after 96 hrs by SRB assay; assay type: functional, cell-based; details: HOS-TE85, 96 h
U2OS [4] = test: Antiproliferative activity against human U2OS cells after 96 hrs by SRB assay; assay type: functional, cell-based
SAOS-2 = test: Antiproliferative activity against human Saos2 cells after 96 hrs by SRB assay; assay type: functional, cell-based; details: SAOS-2, 96 h
OST = test: Antiproliferative activity against human OST cells after 96 hrs by SRB assay; assay type: functional, cell-based
[5] = Antiproliferative activity against human TC71 cells after 96 hrs by SRB assay; assay type: functional, cell-based; details: TC-71, 96 h
[6] = Antiproliferative activity against human TC32 cells after 96 hrs by SRB assay; assay type: functional, cell-based; details: TC-32, 96 h
MCF7 = test: Antiproliferative activity against human MCF7 cells after 96 hrs by SRB assay; assay type: functional, cell-based; details: MCF7, 96 h
A549 = test: Antiproliferative activity against human A549 cells after 96 hrs by SRB assay; assay type: functional, cell-based; details: A549, 96 h
MIA PaCa-2 = test: Antiproliferative activity against human MIAPaCa2 cells after 96 hrs by SRB assay; assay type: functional, cell-based; details: MIA PaCa-2, 96 h
PANC-1 = test: Antiproliferative activity against human PANC1 cells after 96 hrs by SRB assay; assay type: functional, cell-based; details: PANC-1, 96 h
HPAC = test: Antiproliferative activity against human HPAC cells after 96 hrs by SRB assay; assay type: functional, cell-based
PC-3 = test: Antiproliferative activity against human PC3 cells after 96 hrs by SRB assay; assay type: functional, cell-based; details: PC-3, 96 h
[7] = Antiproliferative activity against human 786-O cells after 96 hrs by SRB assay; assay type: functional, cell-based; details: 786-0, 96 h
A498 = test: Antiproliferative activity against human A498 cells after 96 hrs by SRB assay; assay type: functional, cell-based; details: A498, 96 h
[8] = Antiproliferative activity against human RCC4 cells after 96 hrs by SRB assay; assay type: functional, cell-based; details: RCC4, 96 h
[9] = Antiproliferative activity against human RCC4/VHL cells after 96 hrs by SRB assay; assay type: functional, cell-based
[10] = Antiproliferative activity against human TC135 cells after 96 hrs by SRB assay; assay type: functional, cell-based; details: TC135, 96 h
WI-38 = test: Cytotoxicity against human WI38 after 96 hrs by SRB assay; assay type: cell-based; details: WI-38, 96 h
Nucleic Acid [11] = test: Binding affinity to HIF1alpha DNA in by circular dichroism; assay type: nucleic-acid assay
[12] = Ratio of IC50 for human RCC4/VHL cells to IC50 for human RCC4 cells; assay type: functional
[13] = Ratio of cell viability in human RCC4/VHL cells to cell viability in human RCC4 cells in hypoxia condition; assay type: functional
[14] = molecular target: Hypoxia-inducible factor 1-alpha (Homo sapiens) (UniProt Q16665); test: Inhibition of HIF1alpha in human U2OS cells in normaxia condition; assay type: cell-based
Hypoxia-inducible factor 1-alpha (Homo sapiens), sequence (Q16665 whole entry, looked up): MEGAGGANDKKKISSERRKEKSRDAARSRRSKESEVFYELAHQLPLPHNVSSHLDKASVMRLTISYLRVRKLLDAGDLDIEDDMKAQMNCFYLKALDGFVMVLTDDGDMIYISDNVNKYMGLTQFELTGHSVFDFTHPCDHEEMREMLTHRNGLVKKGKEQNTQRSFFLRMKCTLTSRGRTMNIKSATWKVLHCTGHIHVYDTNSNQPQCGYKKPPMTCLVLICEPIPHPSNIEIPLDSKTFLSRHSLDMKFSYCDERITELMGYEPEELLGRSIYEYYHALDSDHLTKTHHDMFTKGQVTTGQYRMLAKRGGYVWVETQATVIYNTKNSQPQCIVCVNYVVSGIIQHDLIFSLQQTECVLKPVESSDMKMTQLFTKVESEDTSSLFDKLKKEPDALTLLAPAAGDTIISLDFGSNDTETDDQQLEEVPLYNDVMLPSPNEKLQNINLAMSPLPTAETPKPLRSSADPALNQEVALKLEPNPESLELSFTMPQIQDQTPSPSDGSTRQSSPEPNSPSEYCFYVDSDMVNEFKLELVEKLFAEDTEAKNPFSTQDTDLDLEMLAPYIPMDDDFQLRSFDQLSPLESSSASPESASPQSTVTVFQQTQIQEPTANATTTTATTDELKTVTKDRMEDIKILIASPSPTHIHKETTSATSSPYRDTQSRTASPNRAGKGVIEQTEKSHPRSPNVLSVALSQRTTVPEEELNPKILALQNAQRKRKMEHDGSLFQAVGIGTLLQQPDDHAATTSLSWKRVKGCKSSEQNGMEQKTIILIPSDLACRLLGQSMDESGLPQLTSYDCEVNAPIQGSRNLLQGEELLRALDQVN

[15] = molecular target: Hypoxia-inducible factor 1-alpha (Homo sapiens) (UniProt Q16665); test: Inhibition of HIF1alpha in human U2OS cells in hypoxia condition; assay type: cell-based
U2OS [16] = test: Downregulation of HIF1alpha protein level in human U2OS cells at 5 fold IC50 concentration within 2 hrs by Western blot analysis; assay type: functional, cell-based
U2OS [17] = test: Downregulation of HIF1alpha mRNA level in human U2OS cells at 5 fold IC50 concentration after 4 hrs by RT-PCR analysis relative to untreated control; assay type: functional
[18] = molecular target: T1, Hypoxia inducible factors; HIF-1-alpha, HIF-2-alpha (Homo sapiens) (UniProt Q16665+Q99814); test: Inhibition of HIF1 transactivation in human U2OS cells after 4 hrs by luciferase reporter gene assay; assay type: cell-based
[19] = molecular target: T1, Hypoxia inducible factors; HIF-1-alpha, HIF-2-alpha (Homo sapiens); test: Inhibition of HIF1 transactivation in human U2OS cells after 4 hrs by luciferase reporter gene assay relative to untreated control; assay type: cell-based; details: concentration not given here
[20] = Therapeutic index, ratio of IC50 for human MG63 cells to IC50 for human WI38 cells; assay type: cell-based, WI-38; details: MG63 cells and WI38 cells, read-out: Ratio IC50
[21] = Therapeutic index, ratio of IC50 for human MNNG-HOS cells to IC50 for human WI38 cells; assay type: cell-based, HOS-TE85; details: MNNG-HOS cells and WI38 cells, read-out: Ratio IC50
[22] = Therapeutic index, ratio of IC50 for human U2OS cells to IC50 for human WI38 cells; assay type: cell-based; details: U2OS cells and WI38 cells, read-out: Ratio IC50
[23] = Therapeutic index, ratio of IC50 for human OST cells to IC50 for human WI38 cells; assay type: cell-based; details: OST cells and WI38 cells, read-out: Ratio IC50
[24] = Therapeutic index, ratio of IC50 for human TC135 cells to IC50 for human WI38 cells; assay type: cell-based; details: TC135 cells and WI38 cells, read-out: Ratio IC50
[25] = Therapeutic index, ratio of IC50 for human A549 cells to IC50 for human WI38 cells; assay type: cell-based; details: A549 cells and WI38 cells, read-out: Ratio IC50
[26] = Therapeutic index, ratio of IC50 for human MIAPaCa2 cells to IC50 for human WI38 cells; assay type: cell-based, MIA PaCa-2; details: MIAPaCa2 cells and WI38 cells, read-out: Ratio IC50
[27] = Therapeutic index, ratio of IC50 for human 786-O cells to IC50 for human WI38 cells; assay type: cell-based, WI-38; details: 786-O cells and WI38 cells, read-out: Ratio IC50
[28] = Therapeutic index, ratio of IC50 for human A498 cells to IC50 for human WI38 cells; assay type: cell-based; details: A498 cells and WI38 cells, read-out: Ratio IC50

O=C(CN1CCCCC1)Nc1cccc(-n2cc(-c3ccc4ccc(-c5cn(-c6cccc(NC(=O)CN7CCCCC7)c6)nn5)cc4c3)nn2)c1
K (Nucleic Acid [1]): 0.81 ×10⁷ /M
K (Nucleic Acid [2]): 0.59 ×10⁷ /M
K (Nucleic Acid [3]): inactive
IC50 (HOS): 47000 nM
IC50 (MG-63): 90 µM
IC50 (HOS-TE85): 23 µM
IC50 (U2OS [4]): 22 µM
IC50 (SAOS-2): 16 µM
IC50 (OST): 37 µM
IC50 [5]: 81 µM
IC50 [6]: 6600 nM
IC50 (MCF7): > 100 µM
IC50 (A549): > 100 µM
IC50 (MIA PaCa-2): > 100 µM
IC50 (PANC-1): > 100 µM
IC50 (HPAC): 96 µM
IC50 (PC-3): > 100 µM
IC50 [7]: 17.5 µM
IC50 (A498): 19 µM
IC50 [8]: 2600 nM
IC50 [9]: 2700 nM
IC50 [10]: 14 µM
IC50 (WI-38): > 10 µM

O=C(CN1CCCC1)Nc1ccc(-n2cc(-c3ccc4ccc(-c5cn(-c6ccc(NC(=O)CN7CCCC7)cc6)nn5)cc4c3)nn2)cc1
K (Nucleic Acid [1]): 1.49 ×10⁷ /M
K (Nucleic Acid [2]): 0.97 ×10⁷ /M
K (Nucleic Acid [3]): inactive
IC50 (HOS): 2600 nM
IC50 (MG-63): > 10 µM
IC50 (HOS-TE85): 9.1 µM
IC50 (U2OS [4]): 18 µM
IC50 (SAOS-2): 9 µM
IC50 (OST): 14 µM
IC50 [5]: 14 µM
IC50 [6]: 2500 nM
IC50 (MCF7): > 100 µM
IC50 (A549): 80.5 µM
IC50 (MIA PaCa-2): 25.5 µM
IC50 (PANC-1): 88 µM
IC50 (HPAC): 9.5 µM
IC50 (PC-3): 91 µM
IC50 [7]: 2.6 µM
IC50 (A498): 3.5 µM
IC50 [8]: 5100 nM
IC50 [9]: 6400 nM
IC50 [10]: 3.2 µM
IC50 (WI-38): 26 µM

O=C(CN1CCCC1)Nc1cccc(-n2cc(-c3ccc4ccc(-c5cn(-c6cccc(NC(=O)CN7CCCC7)c6)nn5)cc4c3)nn2)c1
IC50 (HOS): 2000 nM
IC50 (MG-63): 16 µM
IC50 (HOS-TE85): 9 µM
IC50 (U2OS [4]): 22 µM
IC50 (SAOS-2): 5.8 µM
IC50 (OST): 7.1 µM
IC50 [5]: 75 µM
IC50 [6]: 3000 nM
IC50 (MCF7): > 100 µM
IC50 (A549): 72 µM
IC50 (MIA PaCa-2): > 100 µM
IC50 (PANC-1): 29 µM
IC50 (HPAC): 9 µM
IC50 (PC-3): 25 µM
IC50 [7]: 6.9 µM
IC50 (A498): 3.1 µM
IC50 [8]: 3200 nM
IC50 [9]: 2400 nM
IC50 [10]: 11 µM
IC50 (WI-38): 17 µM

CCN(CC)CC(=O)Nc1cccc(-n2cc(-c3ccc4ccc(-c5cn(-c6cccc(NC(=O)CN(CC)CC)c6)nn5)cc4c3)nn2)c1
K (Nucleic Acid [1]): 0.29 ×10⁷ /M
K (Nucleic Acid [2]): 0.27 ×10⁷ /M
K (Nucleic Acid [3]): < 100000 M⁻¹
Activity (Nucleic Acid [11]): Active
IC50 (HOS): 2400 nM
IC50 (MG-63): 7.9 µM
IC50 (HOS-TE85): 3.2 µM
IC50 (U2OS [4]): 5.5 µM
IC50 (SAOS-2): 2.6 µM
IC50 (OST): 2.6 µM
IC50 [5]: 7.8 µM
IC50 [6]: 900 nM
IC50 (MCF7): 63 µM
IC50 (A549): 60 µM
IC50 (MIA PaCa-2): 16.8 µM
IC50 (PANC-1): 31 µM
IC50 (HPAC): 7.3 µM
IC50 (PC-3): 8.05 µM
IC50 [7]: 2.3 µM
IC50 (A498): 2.5 µM
IC50 [8]: 1300 nM
IC50 [9]: 2600 nM
Ratio IC50 [12]: 2
Ratio [13]: 2.1
inhibition [14]: Dose-dependent effect
inhibition [15]: Dose-dependent effect
Activity (U2OS [16]): Active
Activity (U2OS [17]): 79.7%
inhibition [18]: Dose-dependent effect
inhibition [19]: 7%
IC50 [10]: 2.4 µM
selectivity ratio [20]: 40
selectivity ratio [21]: 40
selectivity ratio [22]: 40
selectivity ratio [23]: 40
selectivity ratio [24]: 40
selectivity ratio [25]: 40
selectivity ratio [26]: 40
selectivity ratio [27]: 40
selectivity ratio [28]: 40
IC50 (WI-38): 91 µM

O=C(CCN1CCCC1)Nc1ccc(-n2cc(-c3ccc4ccc(-c5cn(-c6ccc(NC(=O)CCN7CCCC7)cc6)nn5)cc4c3)nn2)cc1
IC50 (HOS): 600 nM
IC50 (MG-63): 2.8 µM
IC50 (HOS-TE85): 2.1 µM
IC50 (U2OS [4]): 2.2 µM
IC50 (SAOS-2): 1.8 µM
IC50 (OST): 0.9 µM
IC50 [5]: 16 µM
IC50 [6]: 700 nM
IC50 (MCF7): 8.1 µM
IC50 (A549): 17 µM
IC50 (MIA PaCa-2): 7.2 µM
IC50 (PANC-1): 7.8 µM
IC50 (HPAC): 1.9 µM
IC50 (PC-3): 7.1 µM
IC50 [7]: 6.5 µM
IC50 (A498): 1.9 µM
IC50 [8]: 2500 nM
IC50 [9]: 2600 nM
IC50 [10]: 2.2 µM
IC50 (WI-38): 3.9 µM
